Test results from patent US11169145B2, “Methods of detection and treatment for cardiovascular disease and foot wounds” (Washington University, priority 2017, dated 2021).
“Also recorded” adds a separate entry of the source.

Assays:
[1] = cited from earlier work
[2] = cited from earlier work; remark: listed apart in the source
[3] = cited from earlier work; remark: listed apart in the source
[4] = cited from earlier work; remark: listed apart in the source
[5] = test system: serum circulating Fatty Acid Synthase (cFAS); assay: Serum cFAS (ELISA) in subjects with T2D and PAD with or without Cilostazol therapy; format: in vivo, human; settings: subjects with T2D and PAD receiving Cilostazol therapy vs subjects not receiving the medication
Description: FIG. 9A-FIG. 9C is a series of graphs showing serum cFAS is a biomarker for disease subjects with PAD and T2D. cFAS was evaluated using 96-well ELISA (Aviva Systems Biology) FIG. 9A. Subjects with severe PAD (n=29) had more serum cFAS than subjects with moderate PAD (n=30), and subjects with no PAD (n=22). FIG. 9B. cFAS is elevated in subjects with T2D (n=40) compared to no T2D (n=41). FIG. 9C. cFAS is also elevated in subjects with DCSI ≥5 (n=15) compared to DCSI <5 (n=14). FIG. 11A-FIG. 11B is a pie chart and box plot showing cilostazol in our subjects with T2D and PAD. FIG. 11A. In our current clinical practice, Cilostazol therapy is currently administered to only a minority of subjects, and therefore the majority of patients would likely meet study eligibility criteria. FIG. 11B. Subjects with T2D and PAD who receive Cilostazol therapy have lower cFAS (whiskers indicate max and min values) in study cohort. Over a 1 year period, we collected serum specimens from subjects with peripheral arterial disease (PAD; severe or moderate), and/or T2D. Serum cFAS content and enzymatic activity was evaluated as a potential biomarker for PAD and T2D disease severity. […] We retrospectively reviewed patient encounters at the Barnes-Jewish Hospital vascular surgery clinic over a 6-month period to determine the prevalence of Cilostazol prescriptions among subjects with T2D, PAD and/or FWs.

[6] = MR-derived skeletal muscle blood flow (SMBF) in subjects with T2D with or without Cilostazol therapy; format: in vivo, human; settings: subjects with T2D, 12 months of Cilostazol vs not treated, at rest and with exercise; critically ischemic limbs (ABI <0.5)
Source text: MG=Medial Gastrocnemius, SOL=Soleus, color bar unit=ml/min/100 g.

[7] = 3 to 6 month course of Cilostazol therapy
[8] = 8-week course, patients with T2D and PAD

O=C1CCc2cc(OCCCCc3nnnn3C3CCCCC3)ccc2N1 [Cilostazol, 6-[4-(1-cyclohexyl-1H-tetrazol-5-yl)butoxy]-3,4-dihydrocarbostyril]
effect on Class III-IV heart failure ([1]; FDA black-box warning in this patient population): can exacerbate the condition | minor side effect: abdominal pain ([1]; incidence): 5% | minor side effect: arthritis ([1]; incidence): 2% | minor side effect: cough ([1]; incidence): 4% | minor side effect: diarrhea ([1]; incidence): 19% | minor side effect: dizziness ([1]; incidence): 10% | minor side effect: dyspepsia ([1]; incidence): 6% | minor side effect: flatulence ([1]; incidence): 3% | minor side effect: headaches ([1]; incidence): 34% | minor side effect: myalgia ([1]; incidence): 3% | minor side effect: nausea ([1]; incidence): 7% | minor side effect: pharyngitis ([1]; incidence): 10% | minor side effect: skin rash ([1]; incidence): 2% | minor side effect: vertigo ([1]; incidence): 2% | minor side effect: vomiting ([1]; incidence): 2% | increase in walking distance ([2]; 3-month treatment course, patients with claudication): 35-50% | limb function (walking distance) ([2]; previous studies): improve | pro-atherogenic / serum lipid profiles [3, 7]: improve; also recorded: normalize | total cholesterol and serum LDL [3, 7]: decrease | risk of total vascular events, especially cerebrovascular events ([3]; meta-analysis of 12 RCTs, patients with T2D): significantly decrease | PUFA to SFA ratio ([3]; previous literature): alter | lower extremity ischemic symptoms [4, 8]: improving | peripheral skin perfusion detected with transcutaneous oxygen pressure (TcPO2) [4, 8]: improve | onset of FWs ([4]; patients with T2D): prevent | peripheral skin perfusion ([4]; previous studies): enhance | wound healing ([4]; previous studies): promote | serum cFAS [5]: significantly lower | skeletal muscle blood flow (SMBF), lower leg perfusion by MR [6]: improved perfusion; also recorded: Subject not treated with Cilostazol (top) demonstrated less lower leg perfusion
